Laboratory results taken from PMC4737552 (Neuropharmacology, 2015).
Read-outs that look alike come from different tables or passages of the source.

Tests used:
[1] = biological target: human α6β2γ2 GABAA receptor (Homo sapiens, UniProt P18507+P47870+Q16445, DEL377-384, form not given); assay: Whole-cell patch clamp, HEK293 cells expressing α6β2γ2 GABAARs; assay type: cell-based
[2] = biological target: human α3β2γ2 GABAA receptor (Homo sapiens, UniProt P18507+P34903+P47870, DEL377-384, form not given); assay: Whole-cell patch clamp, HEK293 cells expressing α3β2γ2 GABAARs; assay type: cell-based
[3] = biological target: human α1β2γ2 GABAA receptor (Homo sapiens, UniProt P14867+P18507+P47870, DEL377-384, form not given); assay type: cell-based; conditions: for Enhancement of GABA current by carisoprodol, % of control: 100 µM CSP
[4] = biological target: human α1β1γ2 GABAA receptor (Homo sapiens, UniProt P14867+P18505+P18507, DEL377-384, form not given); assay: Whole-cell patch clamp, HEK293 cells expressing α1β1γ2 GABAARs; assay type: cell-based
[5] = biological target: T1, human α1β2 GABAA receptor (Homo sapiens, UniProt P14867+P47870); assay type: cell-based
T1 sequence (P14867 28-456): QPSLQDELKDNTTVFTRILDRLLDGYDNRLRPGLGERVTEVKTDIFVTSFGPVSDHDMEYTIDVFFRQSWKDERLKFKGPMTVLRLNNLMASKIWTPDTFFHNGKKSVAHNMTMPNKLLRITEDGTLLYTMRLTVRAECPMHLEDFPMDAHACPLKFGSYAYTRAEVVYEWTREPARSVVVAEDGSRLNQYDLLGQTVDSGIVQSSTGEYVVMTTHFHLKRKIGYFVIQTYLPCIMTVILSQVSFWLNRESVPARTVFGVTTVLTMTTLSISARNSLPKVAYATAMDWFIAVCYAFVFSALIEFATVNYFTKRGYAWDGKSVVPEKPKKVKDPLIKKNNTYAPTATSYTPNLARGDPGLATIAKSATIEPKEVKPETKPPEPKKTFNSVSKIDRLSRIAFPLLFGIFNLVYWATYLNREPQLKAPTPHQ
T1 sequence (P47870 25-512 limits assumed): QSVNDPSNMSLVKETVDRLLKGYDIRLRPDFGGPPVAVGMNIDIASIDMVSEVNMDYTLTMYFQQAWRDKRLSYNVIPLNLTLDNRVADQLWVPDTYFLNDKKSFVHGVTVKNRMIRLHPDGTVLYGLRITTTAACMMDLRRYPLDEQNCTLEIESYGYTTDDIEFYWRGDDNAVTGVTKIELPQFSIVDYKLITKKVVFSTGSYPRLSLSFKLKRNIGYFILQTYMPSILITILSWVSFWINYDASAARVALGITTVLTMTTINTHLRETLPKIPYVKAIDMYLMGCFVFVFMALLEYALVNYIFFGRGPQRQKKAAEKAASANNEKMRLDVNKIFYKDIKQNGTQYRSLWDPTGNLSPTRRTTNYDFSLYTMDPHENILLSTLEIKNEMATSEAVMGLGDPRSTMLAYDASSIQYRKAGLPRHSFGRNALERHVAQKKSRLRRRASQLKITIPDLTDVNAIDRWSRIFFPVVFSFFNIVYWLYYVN

[6] = biological target: human α2β2γ2 GABAA receptor (Homo sapiens, UniProt P18507+P47869+P47870, DEL377-384, form not given); assay: Whole-cell patch clamp, HEK293 cells expressing α2β2γ2 GABAARs; assay type: cell-based
rat α4β3δ GABAA receptor = rat α4β3δ GABAA receptor (Rattus norvegicus, UniProt P18506+P28471+P63079); assay: Whole-cell patch clamp, HEK293 cells expressing extrasynaptic rat α4β3δ GABAARs; assay type: cell-based; conditions: for Potentiation of saturating (maximal) GABA currents: sub-gating concentration of drug
Sequence of rat α4β3δ GABAA receptor (P28471 36-552): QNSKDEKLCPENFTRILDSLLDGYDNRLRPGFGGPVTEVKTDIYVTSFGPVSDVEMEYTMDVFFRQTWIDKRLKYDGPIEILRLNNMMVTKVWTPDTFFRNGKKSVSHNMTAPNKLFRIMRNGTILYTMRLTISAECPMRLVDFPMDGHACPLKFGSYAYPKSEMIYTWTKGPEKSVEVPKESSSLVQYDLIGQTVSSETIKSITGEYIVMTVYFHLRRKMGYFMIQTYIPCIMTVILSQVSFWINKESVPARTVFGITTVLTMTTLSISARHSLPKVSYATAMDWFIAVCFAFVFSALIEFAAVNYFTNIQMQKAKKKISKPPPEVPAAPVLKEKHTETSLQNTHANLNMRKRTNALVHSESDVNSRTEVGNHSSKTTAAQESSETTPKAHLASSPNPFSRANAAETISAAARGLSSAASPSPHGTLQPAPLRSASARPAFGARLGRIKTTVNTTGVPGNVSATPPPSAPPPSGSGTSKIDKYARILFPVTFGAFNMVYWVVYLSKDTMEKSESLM
Sequence of rat α4β3δ GABAA receptor (P63079 26-473): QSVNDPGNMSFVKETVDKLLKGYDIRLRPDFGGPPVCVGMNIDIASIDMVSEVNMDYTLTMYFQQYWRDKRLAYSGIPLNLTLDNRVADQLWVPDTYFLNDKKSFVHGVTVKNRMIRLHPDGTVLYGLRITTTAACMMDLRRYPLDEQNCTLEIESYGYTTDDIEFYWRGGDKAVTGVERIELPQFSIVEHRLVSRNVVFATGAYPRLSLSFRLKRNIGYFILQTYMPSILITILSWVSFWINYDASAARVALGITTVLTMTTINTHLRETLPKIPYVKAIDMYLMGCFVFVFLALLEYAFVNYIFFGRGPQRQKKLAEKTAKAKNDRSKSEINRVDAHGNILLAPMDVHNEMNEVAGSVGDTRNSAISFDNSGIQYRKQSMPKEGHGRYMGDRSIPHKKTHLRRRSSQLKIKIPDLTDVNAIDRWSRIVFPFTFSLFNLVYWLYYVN
Sequence of rat α4β3δ GABAA receptor (P18506 17-449 limits assumed): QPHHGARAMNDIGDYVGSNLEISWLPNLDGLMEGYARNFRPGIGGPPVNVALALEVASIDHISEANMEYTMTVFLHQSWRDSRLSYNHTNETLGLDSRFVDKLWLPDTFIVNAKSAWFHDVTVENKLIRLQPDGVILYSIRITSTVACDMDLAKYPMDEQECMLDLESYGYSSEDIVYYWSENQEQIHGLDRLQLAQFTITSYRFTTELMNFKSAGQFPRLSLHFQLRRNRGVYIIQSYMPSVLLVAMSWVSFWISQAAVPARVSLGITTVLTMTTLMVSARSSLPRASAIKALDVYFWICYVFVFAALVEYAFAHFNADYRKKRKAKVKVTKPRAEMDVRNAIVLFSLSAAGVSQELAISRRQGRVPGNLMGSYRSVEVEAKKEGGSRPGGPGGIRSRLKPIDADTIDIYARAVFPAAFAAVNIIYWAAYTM

rat α1β3δ GABAA receptor [7] = biological target: T2, rat α1β3δ GABAA receptor (Rattus norvegicus, UniProt P18506+P62813+P63079); conditions: for Potentiation of saturating (maximal) GABA currents: sub-gating concentration of drug
T2 sequence (P62813 28-455): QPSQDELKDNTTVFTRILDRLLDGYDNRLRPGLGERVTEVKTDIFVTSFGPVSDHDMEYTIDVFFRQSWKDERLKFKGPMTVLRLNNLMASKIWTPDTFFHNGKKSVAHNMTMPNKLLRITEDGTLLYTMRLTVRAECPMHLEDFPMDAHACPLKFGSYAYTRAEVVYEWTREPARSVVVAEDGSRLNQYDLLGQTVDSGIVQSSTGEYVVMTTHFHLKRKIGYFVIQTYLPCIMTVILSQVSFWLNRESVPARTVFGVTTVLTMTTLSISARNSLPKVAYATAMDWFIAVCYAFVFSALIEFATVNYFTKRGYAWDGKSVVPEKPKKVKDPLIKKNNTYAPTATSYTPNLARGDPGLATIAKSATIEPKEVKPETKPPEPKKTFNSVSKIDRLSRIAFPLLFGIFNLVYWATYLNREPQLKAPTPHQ
T2 sequence (P63079 26-473): as the sequence (P63079 26-473) above
T2 sequence (P18506 17-449 limits assumed): as the sequence (P18506 17-449 limits assumed) above

rat α1β3 GABAA receptor [8] = biological target: T3, rat α1β3 GABAA receptor (Rattus norvegicus, UniProt P62813+P63079)
T3 sequence (P62813 28-455): as the sequence (P62813 28-455) above
T3 sequence (P63079 26-473): as the sequence (P63079 26-473) above

[9] = case reports; ref McIntyre et al., 2012; Robertson and Marinetti, 2003; cited from earlier work
[10] = biological target: human α4β2γ2 GABAA receptor (Homo sapiens, UniProt P18507+P47870+P48169, DEL377-384, form not given); assay: Whole-cell patch clamp, HEK293 cells expressing α4β2γ2 GABAARs; assay type: cell-based
[11] = biological target: rat α1β3γ2 GABAA receptor (Rattus norvegicus, UniProt P18508+P62813+P63079); assay: Whole-cell patch clamp, HEK293 cells expressing rat α1β3γ2 GABAARs; assay type: cell-based
rat α1β3δ GABAA receptor [12] = biological target: T2, rat α1β3δ GABAA receptor; assay: cell-based
[13] = system: αxβ2γ2 GABAA receptors, where x = α subunit 1–6; assay: Whole-cell patch clamp, direct gating across αxβ2γ2 GABAA receptors; assay type: cell-based, human; conditions: range over α1–α6 β2γ2 receptors
[14] = biological target: human α5β2γ2 GABAA receptor (Homo sapiens, UniProt P18507+P31644+P47870, DEL377-384, form not given); assay: Whole-cell patch clamp, HEK293 cells expressing α5β2γ2 GABAARs; assay type: cell-based
rat α1β2 GABAA receptor = rat α1β2 GABAA receptor (Rattus norvegicus, UniProt P62813+P63138); assay: Whole-cell patch clamp, HEK293 cells expressing rat α1β2 GABAARs; assay type: cell-based
Sequence of rat α1β2 GABAA receptor (P62813 28-455): as the sequence (P62813 28-455) above
Sequence of rat α1β2 GABAA receptor (P63138 25-474 limits assumed): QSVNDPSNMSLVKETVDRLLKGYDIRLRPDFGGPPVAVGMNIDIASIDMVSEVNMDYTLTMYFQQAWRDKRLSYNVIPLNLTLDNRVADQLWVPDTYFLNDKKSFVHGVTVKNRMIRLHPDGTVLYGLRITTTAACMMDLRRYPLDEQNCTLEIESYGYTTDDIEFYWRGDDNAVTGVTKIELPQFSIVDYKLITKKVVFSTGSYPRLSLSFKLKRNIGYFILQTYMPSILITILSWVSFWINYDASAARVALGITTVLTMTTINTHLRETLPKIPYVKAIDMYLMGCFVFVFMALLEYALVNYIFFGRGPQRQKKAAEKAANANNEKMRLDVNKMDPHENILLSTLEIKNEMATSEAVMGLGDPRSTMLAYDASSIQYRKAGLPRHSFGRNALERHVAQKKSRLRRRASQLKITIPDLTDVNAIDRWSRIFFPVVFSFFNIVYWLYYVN

[15] = single dose of 350 mg; ref Littrell et al., 1993; cited from earlier work
rat α1β3 GABAA receptor [16] = biological target: T3, rat α1β3 GABAA receptor; assay: cell-based
[17] = maximum current by carisoprodol plus GABA (EC20) normalized to GABA (EC20) currents
[18] = normalized to maximum GABA gated currents
[19] = read-out: Carisoprodol direct gating EC50, relative to maximum current elicited by carisoprodol
[20] = read-out: EC50 for allosteric modulation by carisoprodol, in the presence of GABA (EC20)

## NCCCC(=O)O [GABA, γ-aminobutyric acid]
[1]
  GABA Hill Coefficient: 1.02 ± 0.12
[2]
  GABA Hill Coefficient: 1.04 ± 0.06
[3]
  GABA Hill Coefficient: 1.32 ± 0.03
[3]; lower concentrations of GABA
  GABA current amplitude at +60 mV as % of that recorded at −60 mV (outward rectification): 110%
[4]
  GABA Hill Coefficient: 1.17 ± 0.09
[5]; α1β2
  GABA Hill Coefficient: 1.32 ± 0.11
[6]
  GABA Hill Coefficient: 1.09 ± 0.12

## Oc1noc2c1CCNC2 [THIP, 4,5,6,7-tetrahydroisoxazolo(5,4-c)pyridin-3-ol]
Rat α4β3δ GABAA receptor
  THIP-gated currents, % of the amplitude of currents obtained with saturating GABA: 153.4 ± 10.7%
Rat α1β3δ GABAA receptor [7]; α1β3δ
  THIP-gated currents, % of the amplitude of currents obtained with saturating GABA: 135.6 ± 7.2%

## CCCC(C)(COC(N)=O)COC(=O)NC(C)C (stereo not shown) [carisoprodol, Carisoprodol]
Rat α1β3 GABAA receptor [8]; rat α1β3, maximum current by carisoprodol plus GABA (EC20) normalized to GABA (EC20) currents
  CSP modulation Efficacy: 234.5 ± 18.9
Rat α1β3 GABAA receptor [8]; rat α1β3, normalized to maximum GABA gated currents
  CSP gating Efficacy: 50.8 ± 6.24
Rat α1β3 GABAA receptor [8]; α1β3, sub-gating concentration of drug
  Potentiation of saturating (maximal) GABA currents: not seen
Rat α4β3δ GABAA receptor
  Potentiation of saturating (maximal) GABA currents: significant potentiation of maximal GABA currents
[1]; [17]
  Efficacy of allosteric modulation by carisoprodol: 232.6 ± 26.9 %
[1]; [18]
  Carisoprodol direct gating Efficacy: 36.8 ± 4.7%
[1]; [19]
  EC50: 294 ± 28.1 µM
[1]; [20]
  EC50: 79.8 ± 13.8 µM
[9]
  Fatal blood or plasma concentration: ≥ 140 µM
[2]; [17]
  Efficacy of allosteric modulation by carisoprodol: 242.7 ± 35.1 %
[2]; [18]
  Carisoprodol direct gating Efficacy: 13.4 ± 1.4 %
[2]; [19]
  EC50: 1870 ± 92.4 µM
[2]; [20]
  EC50: 63.7 ± 16.5 µM
[10]; [17]
  Efficacy of allosteric modulation by carisoprodol: 240.0 ± 16.4 %
[10]; [18]
  Carisoprodol direct gating Efficacy: 37.3 ± 5.0%
[10]; [19]
  EC50: 758 ± 61.3 µM
[10]; [20]
  EC50: 72.3 ± 10.1 µM
[3]; +60 mV
  Enhancement of GABA current by carisoprodol, % of control: 204.8 ± 5.3%
[3]; −60 mV
  Enhancement of GABA current by carisoprodol, % of control: 285.3 ± 17.7%
[3]; 100 µM carisoprodol
  Mean carisoprodol direct gating effect, % of maximal GABA-gated current: 2.8%
[3]; 1 mM CSP, −60 mV vs +60 mV
  Voltage-dependence of direct gating effect: not impacted by membrane voltage
[3]; [17]
  Efficacy of allosteric modulation by carisoprodol: 474.7 ± 53.5%
[3]; [19]
  EC50: 686 ± 30.4 µM
[3]; [20]
  EC50: 88.2 ± 19.9 µM
[4]; [17]
  Efficacy of allosteric modulation by carisoprodol: 225.6 ± 14.6 %
[4]; [18]
  Carisoprodol direct gating Efficacy: 69.7 ± 5.4 %
[4]; [19]
  EC50: 729 ± 58.1 µM
[4]; [20]
  EC50: 33.1 ± 4 µM
[5]; Carisoprodol direct gating EC50, α1β2, relative to maximum current elicited by carisoprodol
  EC50: 679 ± 24.3 µM
[5]; EC50 for allosteric modulation by carisoprodol, α1β2, in the presence of GABA (EC20)
  EC50: 87.4 ± 16.4 µM
[5]; α1β2, maximum current by carisoprodol plus GABA (EC20) normalized to GABA (EC20) currents
  Efficacy of allosteric modulation by carisoprodol: 346.7 ± 67.6%
[5]; α1β2, normalized to maximum GABA gated currents
  Carisoprodol direct gating Efficacy: 45.9 ±3%
[11]; CSP modulation EC50, rat α1β3γ2, in the presence of GABA (EC20)
  EC50: 131 ± 12.4 µM
[11]; rat α1β3γ2, normalized to maximum GABA gated currents
  CSP gating Efficacy: 44.8 ± 3.23
[11]; α1β3γ2, sub-gating concentration of drug
  Potentiation of saturating (maximal) GABA currents: not seen
Rat α1β3δ GABAA receptor [12]; CSP gating EC50, rat α1β3δ, relative to maximum current elicited by carisoprodol
  EC50: 801 ± 24.2 µM
Rat α1β3δ GABAA receptor [12]; CSP modulation EC50, rat α1β3δ, in the presence of GABA (EC20)
  EC50: 109 ± 11.4 µM
[13]
  Maximal carisoprodol-gated current, efficacy as % of maximal GABA-gated current: 13–43%
[6]; [17]
  Efficacy of allosteric modulation by carisoprodol: 198.5 ± 9.5 %
[6]; [18]
  Carisoprodol direct gating Efficacy: 30.1 ± 1.4%
[6]; [19]
  EC50: 829 ± 50.2 µM
[6]; [20]
  EC50: 64.9 ± 19.1 µM
[14]; [17]
  Efficacy of allosteric modulation by carisoprodol: 247.6 ± 23.0 %
[14]; [18]
  Carisoprodol direct gating Efficacy: 37.7 ± 3.5%
[14]; [19]
  EC50: 835 ± 60.3 µM
[14]; [20]
  EC50: 90.8 ± 14.7 µM
Rat α1β3δ GABAA receptor [7]; rat α1β3δ, maximum current by carisoprodol plus GABA (EC20) normalized to GABA (EC20) currents
  CSP modulation Efficacy: 241.5 ± 25.1
Rat α1β3δ GABAA receptor [7]; rat α1β3δ, normalized to maximum GABA gated currents
  CSP gating Efficacy: 128.7 ± 12.3
Rat α1β3δ GABAA receptor [7]; α1β3δ
  Carisoprodol direct gating efficacy relative to THIP: roughly 90%
  Potentiation of saturating (maximal) GABA currents: significant potentiation of maximal GABA currents
Rat α1β2 GABAA receptor; CSP gating EC50, rat α1β2, relative to maximum current elicited by carisoprodol
  EC50: 670 ± 22.2 µM
Rat α1β2 GABAA receptor; CSP modulation EC50, rat α1β2, in the presence of GABA (EC20)
  EC50: 120 ± 10.5 µM
Rat α1β2 GABAA receptor; rat α1β2, maximum current by carisoprodol plus GABA (EC20) normalized to GABA (EC20) currents
  CSP modulation Efficacy: 442.2 ± 27.7
Rat α1β2 GABAA receptor; rat α1β2, normalized to maximum GABA gated currents
  CSP gating Efficacy: 44.6 ± 4.85
[15]
  Onset of effects after administration: ≤ 30 min
  Plasma concentrations: 4000 to 7000 ng/mL
  Time in which plasma concentrations are reached: 2 to 4 h
Rat α1β3 GABAA receptor [16]; CSP gating EC50, rat α1β3, relative to maximum current elicited by carisoprodol
  EC50: 606 ± 25.3 µM
Rat α1β3 GABAA receptor [16]; CSP modulation EC50, rat α1β3, in the presence of GABA (EC20)
  EC50: 135 ± 12.8 µM

## CCCC(C)C1(CC)C(=O)NC(=O)NC1=O (stereo not shown) [pentobarbital]
Rat α4β3δ GABAA receptor
  Potentiation of saturating (maximal) GABA currents: potentiation of saturating GABA currents
Rat α1β3δ GABAA receptor [7]; α1β3δ
  Potentiation of saturating (maximal) GABA currents: potentiation of saturating GABA currents
